Measurements: patent publication US11767296B2, “Heteroaryl compounds as kinase inhibitor” (FUJIAN HAIXI PHARMACEUTICALS CO., LTD, priority 2018, dated 2023)
pIC50: −log10 of the molar value.

Experiments:
[1] = test system: NFS-60 cells; assay: NFS-60 cell assay (CCK proliferation, M-CSF stimulated); assay type: cell-based; settings: Mus musculus, compound 0.5 uM, 72 h, 40 ng/mL M-CSF, read-out: inhibition ratio % (NFS-60 cell proliferation)
Description: Example 54: NFS-60 Cell Assay
1. Experimental Materials
Mouse Myelogenous Leukemia Cells (NFS-60)
Using DMSO to dissolve, and the required concentration was prepared with full culture medium without factors.
Penicillin-streptomycin: TRANS
Mouse M-CSF/CSF-1 Protein: Sino Biological Inc, No. 51112-MNAH
M-CSF: Qilu Pharmaceutical co., Ltd.
The logarithmic growth phase of NFS-60 cells (1640+10% FBS+40 ng/ml M-CSF+1% Penicillin-streptomycin) were centrifuged (1000 r/min) and cultured in a factor-free medium at 37° C., 5% CO2 for 24 hours. Centrifugating (1000 r/min), the culture medium was replaced by new culture medium including 40 ng/mL factors, and inoculated on 96-well plate by 2*10^4 cells/mL, 100 μL/hole. After 16 hours, the tested compounds were added 10 μL/hole, 3 duplicate holes per compound, 37° C., 5% CO2, continue to cultured for 72 h. Then 10 μL CCK reagent was added to each hole. After incubation for 4 hours, the absorbance of each hole was measured at 450 nm wavelength. According to Formula: Inhibitory rate (%)=(1-OD value of test pore/OD value of solvent control pore)×100% 3. Experimental Results The experimental results of the inhibition of NFS-60 cell proliferation by the compounds prepared in Example 3-52, 0.5 uM, are shown in the following table: […]

[2] = target: T1, CSF-1R (Homo sapiens, UniProt P07333); assay: CSF-1R kinase assay (HTRF kinEASE TK); assay type: biochemical; settings: ATP 2.5 uM, enzyme 0.012 ng/ul, read-out: In vitro inhibitory activity of CSF-1R IC50
T1 construct: purchased Invitrogen PV3249
T1 sequence (P07333 20-972): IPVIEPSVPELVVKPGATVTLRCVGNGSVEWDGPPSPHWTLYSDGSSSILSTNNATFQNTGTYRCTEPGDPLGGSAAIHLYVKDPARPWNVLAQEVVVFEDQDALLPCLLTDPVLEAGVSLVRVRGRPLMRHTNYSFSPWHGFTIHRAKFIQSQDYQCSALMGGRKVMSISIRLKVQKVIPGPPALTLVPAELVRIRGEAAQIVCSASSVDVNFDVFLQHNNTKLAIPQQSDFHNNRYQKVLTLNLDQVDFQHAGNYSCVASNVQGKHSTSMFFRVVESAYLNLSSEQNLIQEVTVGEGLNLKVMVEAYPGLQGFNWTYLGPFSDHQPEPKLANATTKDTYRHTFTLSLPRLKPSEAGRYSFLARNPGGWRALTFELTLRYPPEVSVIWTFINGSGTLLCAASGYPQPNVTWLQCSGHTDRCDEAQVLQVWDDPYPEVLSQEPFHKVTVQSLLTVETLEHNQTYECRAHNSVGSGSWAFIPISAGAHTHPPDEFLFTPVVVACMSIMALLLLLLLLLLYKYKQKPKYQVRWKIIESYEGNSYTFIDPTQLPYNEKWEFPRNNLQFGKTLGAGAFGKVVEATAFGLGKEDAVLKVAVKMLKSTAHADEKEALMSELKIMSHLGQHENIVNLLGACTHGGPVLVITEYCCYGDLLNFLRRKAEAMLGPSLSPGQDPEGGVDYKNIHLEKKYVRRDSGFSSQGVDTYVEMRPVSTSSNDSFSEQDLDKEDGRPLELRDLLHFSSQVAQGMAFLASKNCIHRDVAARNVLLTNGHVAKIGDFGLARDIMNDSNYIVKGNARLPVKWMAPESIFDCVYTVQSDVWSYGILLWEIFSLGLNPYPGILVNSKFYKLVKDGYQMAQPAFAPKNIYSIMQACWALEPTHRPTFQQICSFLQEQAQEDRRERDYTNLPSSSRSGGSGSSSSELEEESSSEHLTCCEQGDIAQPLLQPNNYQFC
Description: Example 53: CSF-1R Kinase Assay
I. Materials and Instruments
• 2104 EnVision® Multilabel Reader (PerkinElmer) • OptiPlate-384, White Opaque 384-well MicroPlate (Cat.6007290, PerkinElmer) • HTRF kinEASE TK (Cat.62TKOPEC, Cisbio) • CSF-1R(Cat. PV3249, Invitrogen) • ATP 10 mM (Cat. PV3227, Invitrogen) • DTT 1 M (Cat. D5545, Sigma) • MgCl2 1 M (Cat. M8266, Sigma) • MnCl2 1 M (Cat.244589. Sigma)
II. Experimental Procedure
Substrate-TK and ATP were diluted to 5 times of the reaction concentration by 1×Kinase Buffer. CSF1R enzyme was diluted to 5×enzyme solution by 1×kinase buffer. Sa-XL665 was diluted to 4×Sa-XL665 solution by Detection Buffer. 100×TK-Ab-Cryptate Solution TK-Ab-Cryptate was diluted to 100×TK-Ab-Cryptate solution by Detection Buffer. 2. Experimental Procedure After all reagents had been prepared according to the above method, except enzymes, the sample was added after equilibrium to room temperature. • a. Firstly, 2.5% DMSO solution was prepared by using 1×kinase buffer (the high concentration of DMSO will affect the reaction and control the final concentration of DMSO to 1%). Then the compounds were diluted by 2.5% DMSO solution corresponding to the enzyme. The screening concentration of the compounds was 4 times gradient dilution from 1000 nM, and 8 concentrations. In addition to the control pore, 4 microlitres of diluted solution containing 2.5% DMSO were added to the reaction pore and 4 microlitres of previously prepared solution containing 2.5% DMSO were added to the control pore. • b. 2 microlitres of previously prepared TK-biotin substrate solution was added to all reaction pore (the amount of substrate used for enzyme screening is shown in Table 15). • c. Adding 2 microlitres of CSF1R enzyme solution of corresponding concentration (the amount of enzyme is shown in Table 15) to all reaction pore except negative pore. The negative pore is supplemented with 2 microlitres of enzyme corresponding to 1 xkinase buffer. After mixing, the compound and enzyme can be fully combined by incubating at room temperature for 10 minutes. • d. Enzyme reaction was initiated by adding 2 microlitres ATP solution of corresponding concentration to all reaction pore. The reaction time was 30 minutes (the corresponding ATP concentration and reaction time at enzyme screening were shown in Table 15). • e. Preparing the test solution 5 minutes before the end of kinase reaction. Streptavidin-XL665 and TK antibody europium cryptate (1:100) were prepared with detection buffer in the kit (the corresponding concentration of detection reagent for enzyme screening is shown in Table 15). • f. After the kinase reaction, 5 microlitres of diluted Streptavidin-XL665 were added to all reaction pore, mixing, and then the diluted TK antibody europium cryptate solution was added immediately. • g. After 1 hour reaction at room temperature, the fluorescence signals (320 nm stimulation, 665 nm, 615 nm emission) were detected by ENVISION (Perkinelmer) instrument. The inhibition rate of each pore was calculated by full active pore and background signal pore, and the average value of complex pore was obtained. Meanwhile, the half inhibitory activity (IC50) of each compound was fitted by professional drawing analysis software PRISM 5.0. The Flow Chart of the Experiment is as Follows:
3. Data Analysis Emission Ratio (ER)=665 nm Emission signal/615 nm Emission signal Inhibitory rate=(ERpositive−ERsample)/(ERpositive−ERnegative)*100% Using Graphpad Prism 5 and log (inhibitor) vs. normalized response to fit IC50 curve and calculate IC50 value. The IC50 data of the compounds prepared in Representative Examples 3-52 are as follows (Table 18): […]

[3] = test system: MC-38 transplanted tumors; assay: Animal pharmacodynamics experiment: MC-38 transplanted tumors in C57 mice; assay type: in vivo; settings: 2 weeks; for inhibition in vivo at 30 mg/kg: Mus musculus, MC-38, po, 336 h, compound alone, 30 mg/kg intragastrically daily, read-out: inhibition ratio (tumor size, MC-38 transplanted tumors); for inhibition ratio (tumor size, MC-38 transplanted tumors): compound 30 mg/kg intragastrically daily + anti-PD1 10 mg/kg i.p. once every 3 days
Description: Example 55: Animal Pharmacodynamics Experiment
In this study. MC-38 cell lines were inoculated in C57 mice
Experimental animal: C57 mice, male, 5-6 weeks old (18-22 g)
Inoculation: 2×10^6/0.1 mL, Matrigel is added in 3:1 ratio
PD1: InVivoMAb anti-mouse PD-1 (CD279). BioXCell
Group: On day 4 after inoculating, all the mice were divided into 13 groups, respectively model group, the anti-PD1 2 mg/kg group, anti-PD110 mg/kg group, testing compounds alone, and the tested compound combine with anti-PD1 10 mg/kg. Compounds were intragastrically administered daily at a dose of 30 mg/kg and anti-PD1 was intraperitoneally injected once every 3 days. The drug was administered continuously for 2 weeks. In model group, 80% glycerol+20% CMC-Na was given daily.
Results: The experimental results of anti-PD1 combined with the compounds prepared in the representative example 3-52 on the inhibition of tumor size of MC-38 transplanted tumors are as follows: […]

| pIC50 [2] | SMILES | inhibition at 0.5 µM [1] [%] | inhibition in vivo at 30 mg/kg [3] [%] | inhibition ratio (tumor size, MC-38 transplanted tumors) [3] |
| --- | --- | --- | --- | --- |
| ≥ 7.30 | Cc1cccc(C(=O)Nc2cccc([C@H](C)Oc3cc(Cl)cnc3N)c2)c1 [Compound 54, (S)-N-(3-(1-((2-amino-5-chloropyridin-3-yl)oxy)ethyl)-phenyl)-3-methylbenzamide] | 10 to 50 | – | – |
| ≥ 7.30 | Cc1cccc(C(=O)Nc2cccc([C@@H](C)Oc3cc(Cl)cnc3N)c2)c1Cl [Compound 85, (R)-N-(3-(1-((2-amino-5-chloropyridin-3-yl)oxy)ethyl)-phenyl)-2-chloro-3-methylbenzamide] | – | < 10 | +++ (+++: ≥30%) |
| – | C[C@@H](Oc1cc(-c2cnn(C)c2)cnc1N)c1cccc(NC(=O)c2cccc(C(F)(F)F)c2)c1 [Compound 169, (R)-N-(3-(1-((2-amino-5-(1-methyl-1H-pyrazol-4-yl)pyridin-3-yl)oxy)ethyl)phenyl)-3-(trifluoromethyl)benzamide] | ≥ 50 | – | – |
| – | Cc1ccc(C(=O)Nc2cccc([C@@H](C)Oc3cc(Cl)cnc3N)c2)cc1S(C)(=O)=O [Compound 126, (R)-N-(3-(1-((2-amino-5-chloropyridin-3-yl)oxy)ethyl)-phenyl)-4-methyl-3-(methylsulfonyl)benzamide] | ≥ 50 | – | – |
| ≥ 7.30 | C[C@@H](Oc1cc(Cl)cnc1N)c1cccc(NC(=O)c2ccc3c(c2)S(=O)(=O)CC3)c1 [Compound 134, (R)-N-(3-(1-((2-amino-5-chloropyridin-3-yl)oxy)ethyl)-phenyl)-2,3-dihydrobenzo[b]thiophene-6-carboxamide 1,1-dioxide] | ≥ 50 | – | – |
| – | Cc1cc(C)cc(C(=O)Nc2cccc([C@@H](C)Oc3cc(Cl)cnc3N)c2)c1 [Compound 137, (R)-N-(3-(1-((2-amino-5-chloropyridin-3-yl)oxy)ethyl)-phenyl)-3,5-dimethylbenzamide] | ≥ 50 | – | – |
| ≥ 7.30 | CSc1cccc(C(=O)Nc2cccc([C@@H](C)Oc3cc(-c4cnn(C)c4)cnc3N)c2)c1 [Compound 180, (R)-N-(3-(1-((2-amino-5-(1-methyl-1H-pyrazol-4-yl)pyridin-3-yl)oxy)ethyl)phenyl)-3-(methylthio)benzamide] | ≥ 50 | – | – |
| ≥ 7.30 | COc1cccc(C(=O)Nc2cccc([C@@H](C)Oc3cc(Cl)cnc3N)c2)c1 [Compound 74, (R)-N-(3-(1-((2-amino-5-chloropyridin-3-yl)oxy)ethyl)-phenyl)-3-methoxybenzamide] | ≥ 50 | – | – |
| – | C[C@@H](Oc1cc(-c2cnn(C3CC3)c2)cnc1N)c1cccc(NC(=O)c2cccc(N(C)C)c2)c1 [Compound 212, (R)-N-(3-(1-((2-amino-5-(1-cyclo-propyl-1H-pyrazol-4-yl)pyridin-3-yl)oxy)ethyl)phenyl)-3-(dimethyl-amino)benzamide] | ≥ 50 | – | – |
| ≥ 7.30 | Cc1ccc(C(=O)Nc2cccc([C@@H](C)Oc3cc(Cl)cnc3N)c2)cc1C [Compound 132, (R)-N-(3-(1-((2-amino-5-chloropyridin-3-yl)oxy)ethyl)-phenyl)-3,4-dimethylbenzamide] | ≥ 50 | – | – |
| ≥ 7.30 | Cc1ccc(C(=O)Nc2cccc([C@@H](C)Oc3cc(-c4cccnc4)cnc3N)c2)cc1N(C)C [Compound 206, (R)-N-(3-(1-((6-amino-[3,3′-bipyridin]-5-yl)oxy)ethyl)phenyl)-3-(dimethylamino)-4-methylbenzamide] | ≥ 50 | – | – |
| – | C[C@@H](Oc1cc(-c2cccnc2)cnc1N)c1cccc(NC(=O)c2cccc(C3CC3)c2)c1 [Compound 200, (R)-N-(3-(1-((6-amino-[3,3′-bipyridin]-5-yl)oxy)ethyl)phenyl)-3-cyclopropylbenzamide] | ≥ 50 | – | – |
| ≥ 7.30 | C[C@@H](Oc1cc(Cl)cnc1N)c1cccc(NC(=O)c2cccc(C3CC3)c2)c1 [Compound 86, (R)-N-(3-(1-((2-amino-5-chloropyridin-3-yl)oxy)ethyl)-phenyl)-3-cyclopropylbenzamide] | – | < 10 | +++ (+++: ≥30%) |
| – | C[C@@H](Oc1cc(Cl)cnc1N)c1cccc(NC(=O)c2cc(C(F)(F)F)cc(S(C)(=O)=O)c2)c1 [Compound 150, (R)-N-(3-(1-((2-amino-5-chloropyridin-3-yl)oxy)ethyl)-phenyl)-3-(methylsulfonyl)-5-(trifluoromethyl)benzamide] | ≥ 50 | – | – |
| – | C[C@@H](Oc1cc(-c2cccnc2)cnc1N)c1cccc(NC(=O)c2cccc(S(C)(=O)=O)c2)c1 [Compound 199, (R)-N-(3-(1-((6-amino-[3,3′-bipyridin]-5-yl)oxy)ethyl)phenyl)-3-(methylsulfonyl)benzamide] | ≥ 50 | – | – |
| ≥ 7.30 | CSc1ccc(C(=O)Nc2cccc([C@@H](C)Oc3cc(-c4cnn(C)c4)cnc3N)c2)cc1 [Compound 181, (R)-N-(3-(1-((2-amino-5-(1-methyl-1H-pyrazol-4-yl)pyridin-3-yl)oxy)ethyl)phenyl)-4-(methylthio)benzamide] | ≥ 50 | – | – |
| ≥ 7.30 | C[C@@H](Oc1cc(-c2cnn(C)c2)cnc1N)c1cccc(NC(=O)c2cccc([S+](C)[O-])c2)c1 (stereo partly drawn) [Compound 367, N-(3-((R)-1-((2-amino-5-(1-methyl-1H-pyrazol-4-yl)pyridin-3-yl)oxy)ethyl)phenyl)-3-(methylsulfinyl)benzamide] | ≥ 50 | – | – |
| ≥ 7.30 | C[C@@H](Oc1cc(-c2cccnc2)cnc1N)c1cccc(NC(=O)c2cccc(N(C)C)c2)c1 [Compound 205, (R)-N-(3-(1-((6-amino-[3,3′-bipyridin]-5-yl)oxy)ethyl)phenyl)-3-(dimethylamino)benzamide] | ≥ 50 | – | – |
